Experiments:
Format in all cases: cell-based
[1] = molecular target: T1, human prostanoid EP3 receptor (Homo sapiens, UniProt P43115); assay: FLIPR Ca2+ signaling PG antagonist assay, EP3 stable cell line; settings: HEK-293 EBNA cells, human recombinant EP3 with chimeric Gqi; standard agonist PGE2
T1 construct: expressed in transfected cells
T1 sequence (P43115 1-390): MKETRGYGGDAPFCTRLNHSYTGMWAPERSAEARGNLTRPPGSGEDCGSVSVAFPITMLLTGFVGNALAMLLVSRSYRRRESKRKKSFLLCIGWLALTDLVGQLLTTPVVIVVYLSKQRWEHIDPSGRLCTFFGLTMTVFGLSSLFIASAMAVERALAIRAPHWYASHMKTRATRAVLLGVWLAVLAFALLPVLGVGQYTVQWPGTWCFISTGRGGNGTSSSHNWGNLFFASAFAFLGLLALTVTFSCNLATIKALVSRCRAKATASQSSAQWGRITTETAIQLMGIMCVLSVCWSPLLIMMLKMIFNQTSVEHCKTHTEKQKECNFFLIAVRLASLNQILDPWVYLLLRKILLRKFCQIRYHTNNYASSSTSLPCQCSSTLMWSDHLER
Description: (§1) The above compounds were tested for PG antagonist activity as follows using human recombinant prostanoid receptor (DP1, EP1-4, FP, IP and TP) stable cell lines: In order to measure the response of Gs and Gi coupled prostanoid receptors as a Ca^2+ signal, chimeric G protein cDNAs were used. Stable cell lines over-expressing human prostanoid DP1, EP1-4, FP, IP, and TP receptors were established as follows:
(§2) Briefly, human prostanoid DP1, EP2, and EP4 receptor cDNAs were co-transfected with chimeric Gqs cDNA containing a haemagglutanin (HA) epitope; human prostanoid EP3 receptors were co-transfected with chimeric Gqi-HA; human EP1, FP, IP, and TP receptor cDNAs were expressed with no exogenous G-proteins. Gqs and Gqi chimeric cDNAs (Molecular Devices, Sunnyvale, Calif., U.S.A.), as well as cDNAs of prostanoid receptors, were cloned into a pCEP4 vector with a hygromycin B selection marker. Transfection into HEK-293 EBNA (Epstein-Barr virus nuclear antigen) cells was achieved by the FuGENE 6 transfection Reagent (Roche Applied Science, Indianapolis, Ind., USA). Stable transfectants were selected according to hygromycin resistance. Because Gqs and Gqi contained an HA epitope, G-protein expression was detected by Western blotting analysis using anti-mouse HA monoclonal antibody and horseradish peroxidase (HRP)-conjugated secondary antibody, while functional expression of prostanoid receptors was detected by FLIPR screening (Matias et al., 2004). These stable cell lines were validated using previously published antagonists at 10 μM against serial dilutions of standard agonists by FLIPR functional assays for Ca^2+ Signaling (as described below).
(§3) Ca^2+ signaling studies were performed using a FLIPR TETRA system (Molecular Devices, Sunnyvale, Calif., USA) in the 384-format. This is a high-throughput instrument for cell-based assays to monitor Ca^2+ signaling associated with GPCRs and ion channels. Cells were seeded at a density of 5×10^4 cells/well in BioCoat poly-D-lysine coated, black wall, clear bottom 384-well plates (BD Biosciences, Franklin lakes, NJ, USA) and allowed to attach overnight in an incubator at 37° C. The cells were then washed twice with HBSS-HEPES buffer (Hanks' balanced salt solution without bicarbonate and phenol red, 20 mM HEPES, pH 7.4) using an ELx405 Select CW Microplate Washer (BioTek, Winooski, Vt., USA). After 60 min of dye-loading in the dark using the Ca^2+-sensitive dye Fluo-4AM (Invitrogen, Carlsbad, Calif., USA), at a final concentration of 2×10^−6M, the plates were washed 4 times with HBSS-HEPES buffer to remove excess dye and leaving 50 μl of buffer in each well. The plates were then placed in the FLIPR TETRA instrument and allowed to equilibrate at 37° C. Compounds were added in a 25 μl volume to each well to give final concentrations of 0.1 μM, 0.3 μM, 1 μM, 3 μM, 10 μM, and 30 μM; or 0.067 μM, 0.1 μM, 0.2 μM, 0.3 μM, 0.67 μM, and 1 μM for cells over-expressing TP receptors. After 4.5 minutes, a 7-point serial dilution of the standard agonist for the corresponding receptor, in a 25 μl volume was injected at the final concentrations from 10^−11M to 10^−5M in 10-fold serial dilution increments for cells expressing human recombinant DP1, EP1, EP2, EP3, EP4, FP, and IP receptors. The dose range for the standard agonist for human recombinant TP receptors was from 10^−12M to 10^−6M. HBSS-HEPES buffer was used as the negative control for the standard agonists. Cells were excited with LED (light emitting diode) excitation at 470-495 nm and emission was measured through an emission filter at 515-575 nm. Assay plates were read for 3.5 minutes using the FLIPR^TETRA. The peak increase in fluorescence intensity was recorded for each well. On each plate, negative controls, dose response of positive controls, and co-treatments of antagonist-agonist for each dose were in triplicates. Standard agonists were as follows: DP=BW 245C, EP1-EP4=PGE2, FP=17-phenyl-PGF2α, IP=Cicaprost, and TP=U-46619. […]

[2] = molecular target: T2, human prostanoid IP receptor (Homo sapiens, UniProt P43119); assay: FLIPR Ca2+ signaling PG antagonist assay, IP stable cell line; settings: HEK-293 EBNA cells, human recombinant IP, no exogenous G-protein; standard agonist Cicaprost
T2 construct: expressed in transfected cells
Description: as §1, §2, §3

[3] = molecular target: T3, human prostanoid TP receptor (Homo sapiens, UniProt P21731); assay: FLIPR Ca2+ signaling PG antagonist assay, TP stable cell line; settings: HEK-293 EBNA cells, human recombinant TP, no exogenous G-protein; standard agonist U-46619
T3 construct: expressed in transfected cells
T3 sequence (P21731 1-343): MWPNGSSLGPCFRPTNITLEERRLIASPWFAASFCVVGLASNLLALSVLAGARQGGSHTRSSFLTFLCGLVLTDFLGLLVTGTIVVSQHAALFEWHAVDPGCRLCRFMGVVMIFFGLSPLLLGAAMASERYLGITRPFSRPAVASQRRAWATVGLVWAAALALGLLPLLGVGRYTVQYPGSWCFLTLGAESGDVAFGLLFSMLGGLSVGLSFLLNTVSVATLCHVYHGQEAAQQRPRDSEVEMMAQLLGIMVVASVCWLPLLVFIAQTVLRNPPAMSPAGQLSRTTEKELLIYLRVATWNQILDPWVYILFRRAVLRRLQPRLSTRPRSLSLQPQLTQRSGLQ
Description: as §1, §2, §3

T2 sequence (P43119 whole entry): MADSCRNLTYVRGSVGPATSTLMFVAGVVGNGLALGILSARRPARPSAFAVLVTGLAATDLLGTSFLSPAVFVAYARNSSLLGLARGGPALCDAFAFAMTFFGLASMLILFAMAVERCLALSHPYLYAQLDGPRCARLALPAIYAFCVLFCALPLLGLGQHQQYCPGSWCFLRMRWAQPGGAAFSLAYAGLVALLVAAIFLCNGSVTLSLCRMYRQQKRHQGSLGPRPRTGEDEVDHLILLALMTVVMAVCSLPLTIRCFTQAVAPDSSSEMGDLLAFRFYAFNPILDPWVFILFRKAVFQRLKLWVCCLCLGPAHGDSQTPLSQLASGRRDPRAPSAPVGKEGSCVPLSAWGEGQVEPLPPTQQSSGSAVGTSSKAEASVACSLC

TP (Kb, PG antagonist activity) [3]	SMILES	Kb [1] [nM]	Kb [2] [nM]	Kb [3] [nM]
–	CCC(CC)COc1ccc(Cl)cc1Cn1ccc2cc(C(=O)O)ccc21 [Example 1, 1-[5-Chloro-2-(2-Ethyl-Butoxy)-Benzyl]-1H-Indole-5-Carboxylic Acid]	5200	2200	150
–	CCC(CC)COc1ccc(Cl)cc1Cn1ncc2cc(C(=O)O)ccc21 [Example 2, 1-[5-Chloro-2-(2-Ethyl-Butoxy)-Benzyl]-1H-Indazole-5-Carboxylic ACID]	1100	1100	110
–	CC(C)COc1ccc(Br)cc1Cn1ncc2cc(C(=O)O)ccc21 [Example 4]	1500	800	2
–	CCC(CC)COc1ccc(Cl)cc1Cn1ncc2ccc(C(=O)O)cc21 [Example 6]	≥ 10000	≥ 10000	150
–	CC(C)COc1ccc(Br)cc1Cn1ncc2c(C(=O)O)cccc21 [Example 7, 1-(5-Bromo-2-Isobutoxy-Benzyl)-1H-Indazole-4-Carboxylic Acid]	≥ 10000	1300	20
–	O=C(O)c1ccc2c(cnn2Cc2cc(Cl)ccc2OCc2ccccc2)c1 [Example 8, 1-(2-Benzyloxy-5-Chloro-Benzyl)-1H-Indazole-5-Carboxylic Acid]	≥ 10000	2800	2100
PAgonist	O=C(O)c1ccc2c(cnn2Cc2cc(Cl)ccc2OCc2ccc(Cl)cc2)c1 [Example 9, 1-[5-Chloro-2-(4-Chloro-Benzyloxy)-Benzyl]-1H-Indazole-5-Carboxylic Acid]	4900	1350	–
–	O=C(O)c1ccc2c(cnn2Cc2cc(Cl)ccc2OCC2CCCC2)c1 [Example 10, 1-(5-Chloro-2-Cyclopentylmethoxy-Benzyl)-1H-Indazole-5-Carboxylic Acid]	1100	400	20
–	O=C(O)c1ccc2c(cnn2Cc2cc(Cl)ccc2OCC2CC2)c1 [Example 11, 1-(5-Chloro-2-Cyclopropylmethoxy-Benzyl)-1H-Indazole-5-Carboxylic Acid]	6500	5500	120
–	O=C(O)c1ccc2c(cnn2Cc2cc(Br)ccc2OCc2ccccc2)c1 [Example 12, 1-(2-Benzyloxy-5-Bromo-Benzyl)-1H-Indazole-5-Carboxylic Acid]	≥ 10000	5000	44
–	O=C(O)c1ccc2c(cnn2Cc2cc(Br)ccc2OCc2ccc(Cl)cc2)c1 [Example 13, 1-[5-Bromo-2-(4-Chloro-Benzyloxy)-Benzyl]-1H-Indazole-5-Carboxylic Acid]	8500	600	900
–	O=C(O)c1ccc2c(cnn2Cc2cc(Br)ccc2OCC2CCCC2)c1 [Example 14, 1-(5-Bromo-2-Cyclopentylmethoxy-Benzyl)-1H-Indazole-5-Carboxylic Acid]	1500	340	600
–	O=C(O)c1ccc2c(cnn2Cc2cc(Br)ccc2OCC2CC2)c1 [Example 15, 1-(5-Bromo-2-Cyclopropylmethoxy-Benzyl)-1H-Indazole-5-Carboxylic Acid]	8400	1800	20
–	CC(C)COc1ccc(Cl)cc1Cn1cc2cc(C(=O)O)ccc2n1 [Example 16, 2-(5-Chloro-2-Isobutoxy-Benzyl)-2H-Indazole-5-Carboxylic Acid]	4000	6600	400
–	CC(C)COc1ccc(Br)cc1Cn1cc2cc(C(=O)O)ccc2n1 [Example 17, 2-(5-Bromo-2-Isobutoxy-Benzyl)-2H-Indazole-5-Carboxylic Acid]	≥ 10000	≥ 10000	3300
–	CC(C)COc1ccc(C(F)(F)F)cc1Cn1ncc2cc(C(=O)O)ccc21 [Example 18]	4000	6500	4
–	CC1(COc2ccc(Br)cc2Cn2ncc3cc(C(=O)O)ccc32)CC1 [Example 19]	3600	4600	50
–	CC(C)COc1ccc(OC(F)(F)F)cc1Cn1ncc2cc(C(=O)O)ccc21 [Example 20, 1-(2-Isobutoxy-5-Trifluoromethoxy-Benzyl)-1H-Indazole-5-Carboxylic Acid]	≥ 10000	2700	50
–	Cc1nn(Cc2cc(Br)ccc2OCC(C)C)c2ccc(C(=O)O)cc12 [Example 21, 1-(5-Bromo-2-Isobutoxy-Benzyl)-3-Methyl-1H-Indazole-5-Carboxylic Acid]	2200	900	13
–	Cc1nn(Cc2cc(OC(F)(F)F)ccc2OCC(C)C)c2ccc(C(=O)O)cc12 [Example 22, 1-(2-Isobutoxy-5-Trifluoromethoxy-Benzyl)-3-Methyl-1H-Indazole-5-Carboxylic Acid]	≥ 10000	6000	5
–	CCC(CC)COc1ccc(Cl)cc1Cn1nc(C)c2cc(C(=O)O)ccc21 [Example 23, 1-[5-Chloro-2-(2-Ethyl-Butoxy)-Benzyl]-3-Methyl-1H-Indazole-5-Carboxylic Acid]	1200	500	1
–	Cc1nn(Cc2cc(Cl)ccc2OCC(C)C)c2ccc(C(=O)O)cc12 [Example 24, 1-(5-Chloro-2-Isobutoxy-Benzyl)-3-Methyl-1H-Indazole-5-Carboxylic Acid]	2440	1430	80
–	Cc1nn(Cc2cc(C(F)(F)F)ccc2OCC(C)C)c2ccc(C(=O)O)cc12 [Example 25, 1-(2-Isobutoxy-5-Trifluoromethyl-Benzyl)-3-Methyl-1H-Indazole-5-Carboxylic Acid]	4500	1030	50
–	CCC(CC)COc1ccc(C(F)(F)F)cc1Cn1nc(C)c2cc(C(=O)O)ccc21 [Example 26, 1-[2-(2-Ethyl-Butoxy)-5-Trifluoromethyl-Benzyl]-3-Methyl-1H-Indazole-5-Carboxylic Acid]	3300	1800	18

Source: patent publication US10988474B2, “Compounds acting at multiple prostaglandin receptors giving a general anti-inflammatory response” (ALLERGAN, INC., priority 2011, dated 2021)
